# Reference: the kinase profiling compilation of Christmann-Franck et al. (2016)
# What was measured:
# Assay in all cases: radiometric filter-binding kinase assay, Kinase HotSpot
# Conditions in all cases: compound 0.5 µM; ATP 10 µM
# [1] = biological target: BRSK1 (human) (UniProt Q8TDC3)
# [2] = biological target: CAMK2B (human) (UniProt Q13554)
# [3] = biological target: CAMKK1 (human) (UniProt Q8N5S9)
# [4] = biological target: CDK4 CCND3 (human) (UniProt P30281+P11802)
# [5] = biological target: CDK9 CCNK (human) (UniProt O75909+P50750)
# [6] = biological target: CSNK1A1 (human) (UniProt P48729)
# [7] = biological target: EGFR (human) (UniProt P00533)
# [8] = biological target: EPHA5 (human) (UniProt P54756)
# [9] = biological target: FGFR1 (human) (UniProt P11362)
# [10] = biological target: GSK3B (human) (UniProt P49841)
# [11] = biological target: IKBKE (human) (UniProt Q14164)
# [12] = biological target: JAK1 JH1 catalytic (human) (UniProt P23458)
# [13] = biological target: JAK2 JH1 JH2 (human) (UniProt O60674)
# [14] = biological target: MAP3K10 (human) (UniProt Q02779)
# [15] = biological target: MAP3K11 (human) (UniProt Q16584)
# [16] = biological target: MAP4K5 (human) (UniProt Q9Y4K4)
# [17] = biological target: MAPK1 (human) (UniProt P28482)
# [18] = biological target: MAPK11 (human) (UniProt Q15759)
# [19] = biological target: MAPKAPK3 (human) (UniProt Q16644)
# [20] = biological target: MERTK (human) (UniProt Q12866)
# [21] = biological target: MLTK (human) (UniProt Q9NYL2)
# [22] = biological target: MUSK (human) (UniProt O15146)
# [23] = biological target: MYLK2 (human) (UniProt Q9H1R3)
# [24] = biological target: NEK2 (human) (UniProt P51955)
# [25] = biological target: PDGFRA (human) (UniProt P16234)
# [26] = biological target: PKN1 (human) (UniProt Q16512)
# [27] = biological target: PKN2 (human) (UniProt Q16513)
# [28] = biological target: PRKCE (human) (UniProt Q02156)
# [29] = biological target: PRKD3 (human) (UniProt O94806)
# [30] = biological target: PTK6 (human) (UniProt Q13882)
# [31] = biological target: ROS1 (human) (UniProt P08922)
# [32] = biological target: RPS6KA1 KD1 KD2 (human) (UniProt Q15418)
# [33] = biological target: RPS6KA5 KD2 (human) (UniProt O75582)
# [34] = biological target: RPS6KA6 KD1 KD2 (human) (UniProt Q9UK32)
# [35] = biological target: SRMS (human) (UniProt Q9H3Y6)
# [36] = biological target: SRPK1 (human) (UniProt Q96SB4)
# [37] = biological target: STK4 (human) (UniProt Q13043)
# [38] = biological target: TSSK1B (human) (UniProt Q9BXA7)
# [39] = biological target: TYRO3 (human) (UniProt Q06418)
# [40] = biological target: WEE1 (human) (UniProt P30291)
# [41] = biological target: WNK3 (human) (UniProt Q9BYP7)
# MAP3K10 (human), sequence (Q02779 whole entry, looked up): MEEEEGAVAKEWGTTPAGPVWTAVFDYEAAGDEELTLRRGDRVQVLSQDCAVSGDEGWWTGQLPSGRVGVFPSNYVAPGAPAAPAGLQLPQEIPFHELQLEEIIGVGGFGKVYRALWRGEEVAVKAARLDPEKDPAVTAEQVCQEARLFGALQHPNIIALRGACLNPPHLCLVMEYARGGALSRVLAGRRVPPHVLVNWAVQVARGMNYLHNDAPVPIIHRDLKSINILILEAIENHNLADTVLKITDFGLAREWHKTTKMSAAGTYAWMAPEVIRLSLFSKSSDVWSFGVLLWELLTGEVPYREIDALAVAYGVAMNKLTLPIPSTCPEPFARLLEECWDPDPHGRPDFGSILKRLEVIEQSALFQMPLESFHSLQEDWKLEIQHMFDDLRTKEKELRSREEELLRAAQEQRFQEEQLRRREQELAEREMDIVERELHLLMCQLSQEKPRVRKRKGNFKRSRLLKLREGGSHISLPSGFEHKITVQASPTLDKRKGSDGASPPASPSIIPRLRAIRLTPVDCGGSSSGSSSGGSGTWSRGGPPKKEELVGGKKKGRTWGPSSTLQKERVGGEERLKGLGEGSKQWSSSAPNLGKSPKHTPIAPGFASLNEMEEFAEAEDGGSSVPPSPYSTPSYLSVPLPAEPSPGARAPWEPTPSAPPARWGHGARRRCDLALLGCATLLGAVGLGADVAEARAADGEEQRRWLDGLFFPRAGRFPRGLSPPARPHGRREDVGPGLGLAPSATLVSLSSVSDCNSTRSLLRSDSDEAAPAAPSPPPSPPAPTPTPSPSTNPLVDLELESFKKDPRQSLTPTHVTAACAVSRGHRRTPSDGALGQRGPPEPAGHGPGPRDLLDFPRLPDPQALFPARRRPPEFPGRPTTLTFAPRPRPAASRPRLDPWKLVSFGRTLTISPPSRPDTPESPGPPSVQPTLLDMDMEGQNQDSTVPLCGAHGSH
# MAPK1 (human), sequence (P28482 whole entry, looked up): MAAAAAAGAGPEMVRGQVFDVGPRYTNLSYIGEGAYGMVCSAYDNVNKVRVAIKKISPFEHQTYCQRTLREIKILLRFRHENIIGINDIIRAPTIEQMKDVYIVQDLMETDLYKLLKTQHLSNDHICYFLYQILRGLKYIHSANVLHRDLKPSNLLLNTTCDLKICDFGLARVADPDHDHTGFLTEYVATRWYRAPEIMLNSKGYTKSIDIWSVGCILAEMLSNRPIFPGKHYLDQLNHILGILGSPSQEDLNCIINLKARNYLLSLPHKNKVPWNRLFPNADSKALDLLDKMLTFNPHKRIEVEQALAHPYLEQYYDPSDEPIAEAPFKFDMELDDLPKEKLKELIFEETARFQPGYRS
# ROS1 (human), sequence (P08922 whole entry, looked up): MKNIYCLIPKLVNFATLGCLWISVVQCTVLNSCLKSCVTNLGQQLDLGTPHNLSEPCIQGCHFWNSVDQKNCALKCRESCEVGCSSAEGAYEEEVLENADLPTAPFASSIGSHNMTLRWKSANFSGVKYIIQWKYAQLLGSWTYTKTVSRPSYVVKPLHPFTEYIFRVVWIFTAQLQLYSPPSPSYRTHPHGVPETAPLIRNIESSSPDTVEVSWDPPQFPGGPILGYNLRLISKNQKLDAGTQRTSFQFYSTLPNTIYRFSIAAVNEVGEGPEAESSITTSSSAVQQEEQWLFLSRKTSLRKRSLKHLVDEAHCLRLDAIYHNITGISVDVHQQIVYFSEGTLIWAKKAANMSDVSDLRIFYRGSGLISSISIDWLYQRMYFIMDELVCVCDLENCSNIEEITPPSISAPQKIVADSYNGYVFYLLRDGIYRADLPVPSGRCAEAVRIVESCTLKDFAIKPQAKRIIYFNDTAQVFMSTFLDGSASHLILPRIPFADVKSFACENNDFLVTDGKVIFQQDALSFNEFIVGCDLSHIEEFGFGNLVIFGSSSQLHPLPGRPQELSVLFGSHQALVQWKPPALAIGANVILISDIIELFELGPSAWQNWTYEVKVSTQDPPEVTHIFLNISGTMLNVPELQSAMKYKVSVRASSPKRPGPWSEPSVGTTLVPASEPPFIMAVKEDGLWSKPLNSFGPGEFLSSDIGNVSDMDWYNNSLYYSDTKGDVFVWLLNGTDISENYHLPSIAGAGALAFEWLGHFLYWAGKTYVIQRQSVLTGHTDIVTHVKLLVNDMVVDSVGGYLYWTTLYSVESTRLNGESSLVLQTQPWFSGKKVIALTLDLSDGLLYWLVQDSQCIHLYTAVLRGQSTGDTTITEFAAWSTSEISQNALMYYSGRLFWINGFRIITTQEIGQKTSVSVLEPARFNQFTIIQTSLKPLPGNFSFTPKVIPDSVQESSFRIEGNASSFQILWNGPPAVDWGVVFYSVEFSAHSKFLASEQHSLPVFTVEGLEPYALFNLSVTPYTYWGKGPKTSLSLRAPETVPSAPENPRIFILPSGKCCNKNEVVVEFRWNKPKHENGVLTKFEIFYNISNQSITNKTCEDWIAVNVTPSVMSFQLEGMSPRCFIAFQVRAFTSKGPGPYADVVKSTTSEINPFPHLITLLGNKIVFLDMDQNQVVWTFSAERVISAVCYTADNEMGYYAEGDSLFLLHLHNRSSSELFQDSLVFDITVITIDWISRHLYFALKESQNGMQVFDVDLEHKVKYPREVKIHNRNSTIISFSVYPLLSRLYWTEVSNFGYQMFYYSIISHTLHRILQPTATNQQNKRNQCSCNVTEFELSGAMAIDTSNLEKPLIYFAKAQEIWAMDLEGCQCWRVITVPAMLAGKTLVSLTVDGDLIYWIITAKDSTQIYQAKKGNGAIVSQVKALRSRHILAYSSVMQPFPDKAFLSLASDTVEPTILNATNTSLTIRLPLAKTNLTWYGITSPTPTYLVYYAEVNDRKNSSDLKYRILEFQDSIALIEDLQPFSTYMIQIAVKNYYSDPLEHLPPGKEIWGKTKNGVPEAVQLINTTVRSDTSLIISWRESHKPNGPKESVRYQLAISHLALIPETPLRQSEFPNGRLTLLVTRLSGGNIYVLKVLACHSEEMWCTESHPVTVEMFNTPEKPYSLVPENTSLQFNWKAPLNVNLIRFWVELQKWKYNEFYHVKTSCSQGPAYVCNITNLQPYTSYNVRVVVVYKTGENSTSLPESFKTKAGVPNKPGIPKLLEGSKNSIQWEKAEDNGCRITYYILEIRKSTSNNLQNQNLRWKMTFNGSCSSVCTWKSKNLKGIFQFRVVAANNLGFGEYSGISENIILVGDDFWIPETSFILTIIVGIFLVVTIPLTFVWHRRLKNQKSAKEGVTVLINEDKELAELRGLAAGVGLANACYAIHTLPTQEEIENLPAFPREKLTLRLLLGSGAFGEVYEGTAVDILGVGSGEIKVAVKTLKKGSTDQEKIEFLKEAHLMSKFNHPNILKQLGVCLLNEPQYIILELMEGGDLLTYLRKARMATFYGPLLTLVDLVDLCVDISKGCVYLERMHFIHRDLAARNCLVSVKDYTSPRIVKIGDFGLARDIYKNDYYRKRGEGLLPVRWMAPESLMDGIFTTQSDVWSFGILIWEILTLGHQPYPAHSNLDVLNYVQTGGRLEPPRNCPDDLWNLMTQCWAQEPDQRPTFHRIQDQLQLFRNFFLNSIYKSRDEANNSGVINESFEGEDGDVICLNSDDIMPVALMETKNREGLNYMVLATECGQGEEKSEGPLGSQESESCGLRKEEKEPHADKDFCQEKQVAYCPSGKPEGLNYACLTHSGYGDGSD
# FGFR1 (human), sequence (P11362 whole entry, looked up): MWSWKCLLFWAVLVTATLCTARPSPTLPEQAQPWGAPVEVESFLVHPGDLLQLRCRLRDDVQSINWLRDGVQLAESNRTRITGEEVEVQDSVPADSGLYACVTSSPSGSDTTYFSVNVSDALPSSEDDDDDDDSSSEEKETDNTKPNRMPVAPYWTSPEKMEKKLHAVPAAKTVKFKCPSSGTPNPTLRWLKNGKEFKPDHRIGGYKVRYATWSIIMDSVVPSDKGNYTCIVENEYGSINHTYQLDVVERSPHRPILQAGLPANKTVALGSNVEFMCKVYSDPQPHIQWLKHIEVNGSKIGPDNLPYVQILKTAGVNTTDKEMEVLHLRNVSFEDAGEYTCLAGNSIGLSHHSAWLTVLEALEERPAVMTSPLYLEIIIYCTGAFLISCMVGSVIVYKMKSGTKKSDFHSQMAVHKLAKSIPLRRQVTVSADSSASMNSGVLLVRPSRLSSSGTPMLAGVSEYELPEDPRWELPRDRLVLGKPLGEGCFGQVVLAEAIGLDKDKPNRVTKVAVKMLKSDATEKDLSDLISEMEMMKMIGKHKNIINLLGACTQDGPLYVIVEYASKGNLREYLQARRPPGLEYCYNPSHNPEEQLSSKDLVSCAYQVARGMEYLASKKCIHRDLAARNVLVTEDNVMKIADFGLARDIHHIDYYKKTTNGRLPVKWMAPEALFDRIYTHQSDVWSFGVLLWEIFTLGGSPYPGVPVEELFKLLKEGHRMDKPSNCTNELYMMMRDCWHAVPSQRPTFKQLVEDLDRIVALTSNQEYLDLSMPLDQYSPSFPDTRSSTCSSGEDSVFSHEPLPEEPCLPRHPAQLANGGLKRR
# CSNK1A1 (human), sequence (P48729 whole entry, looked up): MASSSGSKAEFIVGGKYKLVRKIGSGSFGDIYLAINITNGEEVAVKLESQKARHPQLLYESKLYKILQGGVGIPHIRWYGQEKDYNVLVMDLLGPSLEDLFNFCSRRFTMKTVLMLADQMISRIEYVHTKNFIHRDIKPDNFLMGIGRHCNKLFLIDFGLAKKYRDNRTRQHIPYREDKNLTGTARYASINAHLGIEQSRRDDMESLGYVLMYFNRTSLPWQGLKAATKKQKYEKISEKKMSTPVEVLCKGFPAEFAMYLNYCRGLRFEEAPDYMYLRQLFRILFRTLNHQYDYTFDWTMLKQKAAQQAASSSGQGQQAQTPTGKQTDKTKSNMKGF
smiles,measurement,setting,value
O=C1Nc2ccccc2/C1=C1\Nc2ccccc2\C1=N/O,residual activity,[1],23.4%
same,residual activity,[2],87.5%
same,residual activity,[3],53.6%
same,residual activity,[4],98.9%
same,residual activity,[5],59.7%
same,residual activity,[6],48.2%
same,residual activity,[7],97.1%
same,residual activity,[8],86.5%
same,residual activity,[9],52.2%
same,residual activity,[10],27.3%
same,residual activity,[11],75.1%
same,residual activity,[12],63.4%
same,residual activity,[13],84.6%
same,residual activity,[14],95.2%
same,residual activity,[15],17.3%
same,residual activity,[16],37.8%
same,residual activity,[17],96.6%
same,residual activity,[18],92.9%
same,residual activity,[19],103%
same,residual activity,[20],82.2%
same,residual activity,[21],89.6%
same,residual activity,[22],71.2%
same,residual activity,[23],41.1%
same,residual activity,[24],109%
same,residual activity,[25],90.9%
same,residual activity,[26],87.5%
same,residual activity,[27],97.8%
same,residual activity,[28],96.5%
same,residual activity,[29],88.4%
same,residual activity,[30],97.2%
same,residual activity,[31],65.6%
same,residual activity,[32],39.6%
same,residual activity,[33],67%
same,residual activity,[34],52.2%
same,residual activity,[35],102%
same,residual activity,[36],89.3%
same,residual activity,[37],18.8%
same,residual activity,[38],86%
same,residual activity,[39],79.6%
same,residual activity,[40],87.1%
same,residual activity,[41],89.4%
Cc1nc2cc3nc(-c4cccs4)cnc3cc2n1C,residual activity,[1],98.7%
same,residual activity,[2],101%
same,residual activity,[3],127%
same,residual activity,[4],101%
same,residual activity,[5],110%
same,residual activity,[6],96.7%
same,residual activity,[7],104%
same,residual activity,[8],105%
same,residual activity,[9],88.8%
same,residual activity,[10],109%
same,residual activity,[11],89.8%
same,residual activity,[12],105%
same,residual activity,[13],106%
same,residual activity,[14],101%
same,residual activity,[15],91.1%
same,residual activity,[16],94.8%
same,residual activity,[17],110%
same,residual activity,[18],101%
same,residual activity,[19],102%
same,residual activity,[20],90.4%
same,residual activity,[21],89.1%
same,residual activity,[22],90.6%
same,residual activity,[23],74.5%
same,residual activity,[24],97%
same,residual activity,[25],23.8%
same,residual activity,[26],96.5%
same,residual activity,[27],71%
same,residual activity,[28],108%
same,residual activity,[29],97.1%
same,residual activity,[30],88.6%
same,residual activity,[31],97.9%
same,residual activity,[32],99.4%
same,residual activity,[33],109%
same,residual activity,[34],88.5%
same,residual activity,[35],95.4%
same,residual activity,[36],107%
same,residual activity,[37],97.4%
same,residual activity,[38],91.3%
same,residual activity,[39],103%
same,residual activity,[40],86.9%
same,residual activity,[41],96.9%
Cn1sc(=O)n(Cc2ccccc2)c1=O,residual activity,[1],102%
same,residual activity,[2],102%
same,residual activity,[3],114%
same,residual activity,[4],114%
same,residual activity,[5],97.2%
same,residual activity,[6],99.5%
same,residual activity,[7],105%
same,residual activity,[8],103%
same,residual activity,[9],95.6%
same,residual activity,[10],114%
same,residual activity,[11],96.4%
same,residual activity,[12],103%
same,residual activity,[13],91.6%
same,residual activity,[14],99.5%
same,residual activity,[15],95.3%
same,residual activity,[16],107%
same,residual activity,[17],93.1%
same,residual activity,[18],97.2%
same,residual activity,[19],105%
same,residual activity,[20],92.8%
same,residual activity,[21],100%
same,residual activity,[22],103%
same,residual activity,[23],101%
same,residual activity,[24],99.7%
same,residual activity,[25],84.1%
same,residual activity,[26],98.5%
same,residual activity,[27],97.2%
same,residual activity,[28],94.8%
same,residual activity,[29],95.9%
same,residual activity,[30],96.7%
same,residual activity,[31],103%
same,residual activity,[32],97.6%
same,residual activity,[33],108%
same,residual activity,[34],104%
same,residual activity,[35],96.2%
same,residual activity,[36],89.8%
same,residual activity,[37],107%
same,residual activity,[38],94.4%
same,residual activity,[39],99.9%
same,residual activity,[40],92.3%
same,residual activity,[41],101%
